{
  "source": "patent US20240382417A1",
  "about": "“Compositions Comprising Guaifenesin and Eriodictyol” (SYMRISE AG, priority 2018, published 2024)",
  "key": {"HGT-1 cells": {"test_system": "HGT-1 cells", "test": "guaifenesin-induced acid (proton) secretion in HGT-1 cells", "format": "cell-based, human", "details": "for proton secretory activity (log2 transformed ratio of treated vs. untreated cells): mean ± SEM", "description": "Human gastric tumour cell line 1 (HGT-1; Laboisse C. L.; Augeron C.; Couturier-Turpin M. H.; Gespach C.; Cheret A. M.; Potet F., Characterization of a newly established human gastric cancer cell line HGT-1 bearing histamine H2-receptors, Canc. Res., 1982, 42, 1541 to 1548) is a suitable screening tool for detecting the interaction of bitter agents and bitter modulating substances (Liszt, K. I.; Hans, J.; Ley, J. P.; Kock, E.; Somoza, V., Characterization of bitter compounds via modulation of proton secretion in human gastric parietal cells in culture, J. Agric. Food Chem., 2018, 66 (10), 2295-2300.). Therefore, the effect of eriodictyol on guaifenesin-induced acid secretion in the HGT-1 cell line was determined to predict the modulation of guaifenesin-induced bitterness by eriodictyol. To this aim, HGT-1 cells were cultured under standard conditions and passaged at ca. 80% confluence. […] HGT-1 cells were pre-loaded with (acetyloxy) methyl-3-(acetyloxy)-10-(dimethylamino)-3′-oxo-spiro[7H-benzo [c]xanthene-7,1′(3H)-isobenzofuran]-ar′-carboxylate and incubated in 130 mM NaCl 130, 4.7 mM KCl, 1.3 mM CaCl2, 1.2 mM MgSO4, 1.2 mM KH2PO4, 11.7 mM glucose, 10 mM HEPES 10, 20 μM 4,4′-Diisothiocyanatostilbene-2,2′-disulfonic acid disodium and 20 μM 5-(N-Ethyl-N-isopropyl) amiloride at pH 7.4. Fluorescence recordings were performed with an excitation wavelength of 488 nm and monitoring the emission wavelengths of 580 nm and 640 nm, respectively, each with a 20 nm bandwidth. […]\n(§1) The data in Table 1 are presented as mean±SEM derived from 7 biological replicates and 14 to 21 technical replicates. Outliers were identified using the Nalimov test, statistical significance was tested one-way ANOVA with Tukey's range test for multiple comparisons and Bonferroni correction, establishing the threshold for significance at p<0.0071. Accordingly, data are marked with * (p<0.0071), ** (p<0.0014) or *** (p<0.00014). Control: untreated cells\nas §1, with “Table 2” for “Table 1”"}, "guaifenesin bitterness": {"test_system": "guaifenesin bitterness", "details": "200 ppm (0.2 mg/ml) HED against 13 mg/ml guaifenesin; cited from earlier work"}, "trained sensory panel": {"test_system": "trained sensory panel", "test": "sensory panel test of guaifenesin-induced bitterness perception (sip and spit, randomized comparison)", "format": "in vivo, human", "details": "guaifenesin used in combination with eriodictyol; refers to Table 3", "procedure": "To verify the effect of eriodictyol on guaifenesin-induced bitterness perception, an aqueous solution of 13 g/l guaifenesin (1) was tested against an aqueous solution containing 13 g/l guaifenesin and 20 mg/l eriodictyol (2) or 100 mg/l homoeriodictyol (3). The test was conducted as a randomized comparison test in a trained sensory panel (n=20 to 30) via a sip and spit procedure. The panelists tasted both solutions in a blinded fashion and rated bitterness on a scale of 0 to 100."}},
  "note": "Marks after values point to notes of the source that are not given here.",
  "data": [
    {"smiles": "COc1cc([C@@H]2CC(=O)c3c(O)cc(O)cc3O2)ccc1O", "note": "(stereo in doubt) [homoeriodictyol, (2S)-/(2R)-5,7-Dihydroxy-2-(4-hydroxy-3-methoxyphenyl)-4-chromanone]", "values": [
      {"measurement": "proton secretory activity (log2 transformed ratio of treated vs. untreated cells)", "setting": "HGT-1 cells; 10 mM guaifenesin ± 3 μM homoeriodictyol, timepoint 0 min", "value": "−0.2514 ± 0.0260"},
      {"measurement": "proton secretory activity (log2 transformed ratio of treated vs. untreated cells)", "setting": "HGT-1 cells; 10 mM guaifenesin ± 3 μM homoeriodictyol, timepoint 5 min", "value": "−0.1923 ± 0.0304"},
      {"measurement": "proton secretory activity (log2 transformed ratio of treated vs. untreated cells)", "setting": "HGT-1 cells; 10 mM guaifenesin ± 3 μM homoeriodictyol, timepoint 10 min", "value": "−0.2547 ± 0.0320"},
      {"measurement": "proton secretory activity (log2 transformed ratio of treated vs. untreated cells)", "setting": "HGT-1 cells; 10 mM guaifenesin ± 3 μM homoeriodictyol, timepoint 15 min", "value": "−0.2538 ± 0.0317"},
      {"measurement": "proton secretory activity (log2 transformed ratio of treated vs. untreated cells)", "setting": "HGT-1 cells; 10 mM guaifenesin ± 3 μM homoeriodictyol, timepoint 20 min", "value": "−0.2677 ± 0.0264"},
      {"measurement": "proton secretory activity (log2 transformed ratio of treated vs. untreated cells)", "setting": "HGT-1 cells; 10 mM guaifenesin ± 3 μM homoeriodictyol, timepoint 25 min", "value": "−0.2472 ± 0.0296"},
      {"measurement": "proton secretory activity (log2 transformed ratio of treated vs. untreated cells)", "setting": "HGT-1 cells; 10 mM guaifenesin ± 3 μM homoeriodictyol, timepoint 30 min", "value": "−0.2493 ± 0.0300"},
      {"measurement": "proton secretory activity (log2 transformed ratio of treated vs. untreated cells)", "setting": "HGT-1 cells; 10 mM guaifenesin ± 30 μM homoeriodictyol, timepoint 0 min", "value": "−0.2845 ± 0.0235"},
      {"measurement": "proton secretory activity (log2 transformed ratio of treated vs. untreated cells)", "setting": "HGT-1 cells; 10 mM guaifenesin ± 30 μM homoeriodictyol, timepoint 5 min", "value": "−0.1702 ± 0.0265"},
      {"measurement": "proton secretory activity (log2 transformed ratio of treated vs. untreated cells)", "setting": "HGT-1 cells; 10 mM guaifenesin ± 30 μM homoeriodictyol, timepoint 10 min", "value": "−0.1272 ± 0.0263*"},
      {"measurement": "proton secretory activity (log2 transformed ratio of treated vs. untreated cells)", "setting": "HGT-1 cells; 10 mM guaifenesin ± 30 μM homoeriodictyol, timepoint 15 min", "value": "−0.1934 ± 0.0259"},
      {"measurement": "proton secretory activity (log2 transformed ratio of treated vs. untreated cells)", "setting": "HGT-1 cells; 10 mM guaifenesin ± 30 μM homoeriodictyol, timepoint 20 min", "value": "−0.2282 ± 0.0260"},
      {"measurement": "proton secretory activity (log2 transformed ratio of treated vs. untreated cells)", "setting": "HGT-1 cells; 10 mM guaifenesin ± 30 μM homoeriodictyol, timepoint 25 min", "value": "−0.1601 ± 0.0206"},
      {"measurement": "proton secretory activity (log2 transformed ratio of treated vs. untreated cells)", "setting": "HGT-1 cells; 10 mM guaifenesin ± 30 μM homoeriodictyol, timepoint 30 min", "value": "−0.2187 ± 0.0244"},
      {"measurement": "inhibition of proton secretion compared with eriodictyol", "setting": "HGT-1 cells; co-incubation of 10 mM guaifenesin with 30 μM homoeriodictyol", "value": "did not exhibit such a pronounced inhibition"},
      {"measurement": "change in proton secretion compared to 10 mM guaifenesin alone", "setting": "HGT-1 cells; co-incubation of 10 mM guaifenesin with 30 μM homoeriodictyol, only the time point at 10 min (p<0.0071)", "value": "significant decrease"},
      {"measurement": "reduction in guaifenesin bitterness", "setting": "guaifenesin bitterness", "value": "about 40%"}
    ]},
    {"smiles": "O=C1CC(c2ccc(O)c(O)c2)Oc2cc(O)cc(O)c21", "note": "[eriodictyol, (2S)-/(2R)-2-(3,4-dihydroxyphenyl)-5,7-dihydroxy-4-chromanone]", "values": [
      {"measurement": "proton secretory activity (log2 transformed ratio of treated vs. untreated cells)", "setting": "HGT-1 cells; 10 mM guaifenesin + 3 μM eriodictyol, timepoint 0 min", "value": "−0.3389 ± 0.0274"},
      {"measurement": "proton secretory activity (log2 transformed ratio of treated vs. untreated cells)", "setting": "HGT-1 cells; 10 mM guaifenesin + 3 μM eriodictyol, timepoint 5 min", "value": "−0.3351 ± 0.0246"},
      {"measurement": "proton secretory activity (log2 transformed ratio of treated vs. untreated cells)", "setting": "HGT-1 cells; 10 mM guaifenesin + 3 μM eriodictyol, timepoint 10 min", "value": "−0.2874 ± 0.0241"},
      {"measurement": "proton secretory activity (log2 transformed ratio of treated vs. untreated cells)", "setting": "HGT-1 cells; 10 mM guaifenesin + 3 μM eriodictyol, timepoint 15 min", "value": "−0.2595 ± 0.0264"},
      {"measurement": "proton secretory activity (log2 transformed ratio of treated vs. untreated cells)", "setting": "HGT-1 cells; 10 mM guaifenesin + 3 μM eriodictyol, timepoint 20 min", "value": "−0.2622 ± 0.0286"},
      {"measurement": "proton secretory activity (log2 transformed ratio of treated vs. untreated cells)", "setting": "HGT-1 cells; 10 mM guaifenesin + 3 μM eriodictyol, timepoint 25 min", "value": "−0.3259 ± 0.0279"},
      {"measurement": "proton secretory activity (log2 transformed ratio of treated vs. untreated cells)", "setting": "HGT-1 cells; 10 mM guaifenesin + 3 μM eriodictyol, timepoint 30 min", "value": "−0.3237 ± 0.0296"},
      {"measurement": "proton secretory activity (log2 transformed ratio of treated vs. untreated cells)", "setting": "HGT-1 cells; 10 mM guaifenesin + 30 μM eriodictyol, timepoint 0 min", "value": "−0.2324 ± 0.0297"},
      {"measurement": "proton secretory activity (log2 transformed ratio of treated vs. untreated cells)", "setting": "HGT-1 cells; 10 mM guaifenesin + 30 μM eriodictyol, timepoint 5 min", "value": "−0.2396 ± 0.0252"},
      {"measurement": "proton secretory activity (log2 transformed ratio of treated vs. untreated cells)", "setting": "HGT-1 cells; 10 mM guaifenesin + 30 μM eriodictyol, timepoint 10 min", "value": "−0.1630 ± 0.0308***"},
      {"measurement": "proton secretory activity (log2 transformed ratio of treated vs. untreated cells)", "setting": "HGT-1 cells; 10 mM guaifenesin + 30 μM eriodictyol, timepoint 15 min", "value": "−0.1472 ± 0.0302**"},
      {"measurement": "proton secretory activity (log2 transformed ratio of treated vs. untreated cells)", "setting": "HGT-1 cells; 10 mM guaifenesin + 30 μM eriodictyol, timepoint 20 min", "value": "−0.1496 ± 0.0269**"},
      {"measurement": "proton secretory activity (log2 transformed ratio of treated vs. untreated cells)", "setting": "HGT-1 cells; 10 mM guaifenesin + 30 μM eriodictyol, timepoint 25 min", "value": "−0.1478 ± 0.0283***"},
      {"measurement": "proton secretory activity (log2 transformed ratio of treated vs. untreated cells)", "setting": "HGT-1 cells; 10 mM guaifenesin + 30 μM eriodictyol, timepoint 30 min", "value": "−0.1886 ± 0.0272*"},
      {"measurement": "change in proton secretory activity of HGT-1 cells compared to 10 mM guaifenesin alone", "setting": "HGT-1 cells; co-incubation of 10 mM guaifenesin with 30 μM eriodictyol, from 10 min onwards", "value": "significant decrease"},
      {"measurement": "reduction of bitterness of guaifenesin", "setting": "trained sensory panel", "value": "≥ 35", "unit": "%"}
    ]},
    {"smiles": "COc1ccccc1OCC(O)CO", "note": "(centres unmarked) [guaifenesin, 3-(2-methoxyphenoxy-) 1,2-propanediol]", "values": [
      {"measurement": "proton secretory activity (log2 transformed ratio of treated vs. untreated cells)", "setting": "HGT-1 cells; 10 mM guaifenesin alone, Table 1, timepoint 0 min", "value": "−0.3130 ± 0.0306"},
      {"measurement": "proton secretory activity (log2 transformed ratio of treated vs. untreated cells)", "setting": "HGT-1 cells; 10 mM guaifenesin alone, Table 1, timepoint 5 min", "value": "−0.2720 ± 0.0225"},
      {"measurement": "proton secretory activity (log2 transformed ratio of treated vs. untreated cells)", "setting": "HGT-1 cells; 10 mM guaifenesin alone, Table 1, timepoint 10 min", "value": "−0.3283 ± 0.0253"},
      {"measurement": "proton secretory activity (log2 transformed ratio of treated vs. untreated cells)", "setting": "HGT-1 cells; 10 mM guaifenesin alone, Table 1, timepoint 15 min", "value": "−0.2945 ± 0.0277"},
      {"measurement": "proton secretory activity (log2 transformed ratio of treated vs. untreated cells)", "setting": "HGT-1 cells; 10 mM guaifenesin alone, Table 1, timepoint 20 min", "value": "−0.2885 ± 0.0266"},
      {"measurement": "proton secretory activity (log2 transformed ratio of treated vs. untreated cells)", "setting": "HGT-1 cells; 10 mM guaifenesin alone, Table 1, timepoint 25 min", "value": "−0.3135 ± 0.0260"},
      {"measurement": "proton secretory activity (log2 transformed ratio of treated vs. untreated cells)", "setting": "HGT-1 cells; 10 mM guaifenesin alone, Table 1, timepoint 30 min", "value": "−0.3241 ± 0.0280"},
      {"measurement": "proton secretory activity (log2 transformed ratio of treated vs. untreated cells)", "setting": "HGT-1 cells; 10 mM guaifenesin alone, Table 2, timepoint 0 min", "value": "−0.2712 ± 0.0190"},
      {"measurement": "proton secretory activity (log2 transformed ratio of treated vs. untreated cells)", "setting": "HGT-1 cells; 10 mM guaifenesin alone, Table 2, timepoint 5 min", "value": "−0.2170 ± 0.0217"},
      {"measurement": "proton secretory activity (log2 transformed ratio of treated vs. untreated cells)", "setting": "HGT-1 cells; 10 mM guaifenesin alone, Table 2, timepoint 10 min", "value": "−0.2543 ± 0.0268"},
      {"measurement": "proton secretory activity (log2 transformed ratio of treated vs. untreated cells)", "setting": "HGT-1 cells; 10 mM guaifenesin alone, Table 2, timepoint 15 min", "value": "−0.2518 ± 0.0274"},
      {"measurement": "proton secretory activity (log2 transformed ratio of treated vs. untreated cells)", "setting": "HGT-1 cells; 10 mM guaifenesin alone, Table 2, timepoint 20 min", "value": "−0.2081 ± 0.0243"},
      {"measurement": "proton secretory activity (log2 transformed ratio of treated vs. untreated cells)", "setting": "HGT-1 cells; 10 mM guaifenesin alone, Table 2, timepoint 25 min", "value": "−0.2454 ± 0.0265"},
      {"measurement": "proton secretory activity (log2 transformed ratio of treated vs. untreated cells)", "setting": "HGT-1 cells; 10 mM guaifenesin alone, Table 2, timepoint 30 min", "value": "−0.2730 ± 0.0241"}
    ]}
  ]
}
